Experimental data: patent publication US9592183B2, “Inhibitor of endothelin action and skin-whitening agent” (Kao Corporation, priority 2010, dated 2017)
Entries after “also recorded” stand apart in the source; their conditions may differ.

Columns and labels:
Assay type in all cases: cell-based
[1] = tested on: melanocyte-containing, 3-D cultured skin model (MEL300A); test: Melanin production-suppressing effect in 3-D cultured skin model stimulated with ET-1 and SCF; conditions: 14 days; for Effect on melanin content / melanin production (in words): 3-D skin model
Procedure: (§1) A melanocyte-containing, 3-D cultured skin model (MEL300A, KURABO INDUSTRIES LTD.) was cultured at 37° C. under 5% CO2 using an EPI-100-NMM113 medium to which endothelin-1 (ET-1) as a melanocyte activator and SCF (stem cell growth factor) were each added at a final concentration of 10 nM. From the first day of the culture, the baeomycesic acid was added at a final concentration of 50 μM (N=2). The medium was refreshed once every three days. After 14 days, the skin model was washed with PBS and photographed. Subsequently, the cell respiration activity was measured using the Alamar Blue reagent to confirm that the final concentration was not cytotoxic (the results are not shown).
Subsequently, the skin model cup was washed with PBS, and the skin sheet was removed with tweezers, transferred into a tube, and washed three times with PBS. The skin sheet was washed three times with 50% ethanol and twice with 100% ethanol, and then allowed to stand overnight at room temperature, so that it was completely dried. After 200 μL of 2 M NaOH was added, the skin sheet was dissolved at 100° C. A supernatant obtained by centrifugation of the solution was measured for absorbance at a wavelength of 405 nm, and then the melanin content was calculated. The melanin content was expressed as a relative value (%) when the melanin content in a control was normalized as 100. In the control used, ethanol or a 10 to 95 v/v % aqueous ethanol solution was added at a final concentration of 0.1 to 0.5 v/v %.

[2] = tested on: melanocyte-containing, 3-D cultured skin model (MEL300A); test: Cell respiration activity (Alamar Blue) of the skin model; conditions: final concentration 50 μM, after 14 days; results not shown
Procedure: as §1

[3] = tested on: endothelin (ET-1)-induced rise in intracellular calcium concentration in normal human neonatal epidermal melanocytes (NHEMs); test: Endothelin action-suppressing effect: endothelin-induced rise in intracellular calcium (Fluo4-AM, FDSS); conditions: for Effect of suppressing endothelin action (in words): 50 μM; for Rate of rise in intracellular Ca concentration: pretreated 1 minute, ET-1 100 nM, relative value, control = 100, N=6
Procedure: Normal human neonatal epidermal melanocytes (NHEMs, KURABO INDUSTRIES LTD.) were seeded at 3×10^4 cells/well (200 μL/well) in 96-well plates for use in fluorometry, and cultured at 37° C. under 5% CO2. The medium used was PMA (−), growth additive (HMGS)-containing Medium 254.
After culture for 3 days, the medium was removed from the culture plate by decantation, and replaced with an assay buffer containing a reagent Fluo4-AM for intracellular Ca^2++ measurement, which was followed by incubation at 37° C. for 1 hour. Subsequently, 20 seconds after the start of the measurement, the compound at a predetermined concentration was pretreated for 1 minute in a FDSS (Functional Drug Screening System) instrument, and then endothelin (ET-1, 100 nM final concentration) as a ligand was added to the wells. Fluo4-AM fluorescence was detected at the measurement wavelengths Ex. 480 nm and Em. 540 nm over time from the start of the measurement to 5 minutes later.
For each compound, the rate (%) of rise in intracellular calcium (calcium ion) concentration was calculated as a relative value (%) when an increase (Max ratio−Min ratio) in Fluo4-AM fluorescence in a control was normalized as 100. The suppressing effect of endothelin action was evaluated based on the calculated rate. In the control used, ethanol or a 10 to 95 v/v % aqueous ethanol solution was added at a final concentration of 0.1 to 0.5 v/v %. […]
The compound prepared as described above was pretreated at the final concentration shown in Table 3 and subjected to the assay system. Then, the rate of endothelin-induced rise in Ca concentration was calculated (N=6). […]

Row | Structure (SMILES) | Reduction in melanin content in the skin tissue relative to the control system ([1]; 50 μM, ET-1 and SCF each 10 nM, FIG. 3, N=2) | Skin colour of the skin sheet (photograph, FIG. 2) ([1]; 50 μM, compared with the control system) | Effect on melanin content / melanin production (in words) ([1]; ET-1 and SCF each 10 nM) | Cytotoxicity (cell respiration activity, Alamar Blue) [2] | Effect of suppressing endothelin action (in words) [3] | Rate of rise in intracellular Ca concentration ([3]; compound 50 μM) [%] | Suppression of endothelin-induced rise in intracellular Ca concentration ([3]; compound 50 μM, relative to control)
1 | COc1cc(C)c(C(=O)Oc2cc(C)c(C(=O)O)c(O)c2C)c(O)c1C=O [Baeomycesic Acid, baeomycesic acid] | at least 40% | light skin color and suppressed skin blackening | significantly suppresses melanin production | not cytotoxic | significantly suppresses the rise in intracellular Ca concentration | 52.7 | –
2 | COc1cc(C)c(C(=O)Oc2cc(C)c(C(=O)O)c(O)c2C)c(O)c1C [Barbatic Acid, Barbatic acid] | – | – | – | – | – | 38.4 | –
3 | COc1cc(C)c(C(=O)Oc2cc(C)c(C(=O)O)c(O)c2C)c(OC)c1C [Diffractaic Acid, Diffractaic acid] | – | – | – | – | – | 28.0 | –
4 | COc1cc(C)c(C(=O)Oc2cc(C)c(C(=O)O)c(O)c2C)c(O)c1C(=O)O [Squamatic Acid, squamatic acid, reference compound] | – | – | no significant reduction in melanin content; also recorded: almost no effect of suppressing melanin production | – | almost no effect of suppressing endothelin action | 95.9 | about 4%
